# Measurements published in PubChem BioAssay (NCI).
# Several values for one entry are separate records, joined by “and”; a condition that tells them apart may be missing. Identical values can stand only once.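 Compound exposure: 48 hours, 5 concentrations, 96-well plates. At the GI50, growth is halved. The concentration for full growth arrest is given as TGI.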
# How the values were obtained:
# Assay in all cases: DTP human tumour cell line panel, 48 h
# NCI-H522 lung = system: NCI-H522 lung
# HOP-62 NSCLC = system: HOP-62 NSCLC
# NCI-H23 lung = system: NCI-H23 lung
# MALME-3M melanoma = system: MALME-3M melanoma
# ACHN renal = system: ACHN renal
# RPMI-8226 leukemia = system: RPMI-8226 leukemia
# HL-60(TB) leukemia = system: HL-60(TB) leukemia
# UACC-257 melanoma = system: UACC-257 melanoma
# HCT-15 colon = system: HCT-15 colon
# MCF7 breast = system: MCF7 breast
# MDA-MB-435 = system: MDA-MB-435
# SN12C renal = system: SN12C renal
# LOX IMVI melanoma = system: LOX IMVI melanoma
# U251 CNS = system: U251 CNS
# IGROV1 ovarian = system: IGROV1 ovarian
# 786-0 renal = system: 786-0 renal
# MOLT-4 leukemia = system: MOLT-4 leukemia
# DU-145 prostate = system: DU-145 prostate
# OVCAR-5 ovarian = system: OVCAR-5 ovarian
# SNB-75 CNS = system: SNB-75 CNS
# RXF 393 renal = system: RXF 393 renal
# SNB-19 CNS = system: SNB-19 CNS
# SF-295 CNS = system: SF-295 CNS
# UACC-62 melanoma = system: UACC-62 melanoma
# A498 renal = system: A498 renal
# OVCAR-3 ovarian = system: OVCAR-3 ovarian
# SK-MEL-28 melanoma = system: SK-MEL-28 melanoma
# SF-268 CNS = system: SF-268 CNS
# HT29 colon = system: HT29 colon
# NCI-H460 lung = system: NCI-H460 lung
# T-47D breast = system: T-47D breast
# BT-549 breast = system: BT-549 breast
# HCC-2998 colon = system: HCC-2998 colon
# OVCAR-8 ovarian = system: OVCAR-8 ovarian
# SK-OV-3 ovarian = system: SK-OV-3 ovarian
# NCI-H226 lung = system: NCI-H226 lung
# KM12 colon = system: KM12 colon
# OVCAR-4 ovarian = system: OVCAR-4 ovarian
# K-562 leukemia = system: K-562 leukemia
# HCT-116 colon = system: HCT-116 colon
# EKVX NSCLC = system: EKVX NSCLC
# SR leukemia = system: SR leukemia
# HS 578T breast = system: HS 578T breast
# M14 melanoma = system: M14 melanoma
# COLO 205 colon = system: COLO 205 colon
# TK-10 renal = system: TK-10 renal
# HOP-92 NSCLC = system: HOP-92 NSCLC
# CAKI-1 renal = system: CAKI-1 renal
# SW-620 colon = system: SW-620 colon
# NCI/ADR-RES ovarian = system: NCI/ADR-RES ovarian
# MDA-MB-231 breast = system: MDA-MB-231 breast
# A549 NSCLC = system: A549 NSCLC
# UO-31 renal = system: UO-31 renal
# SK-MEL-2 melanoma = system: SK-MEL-2 melanoma
# CCRF-CEM leukemia = system: CCRF-CEM leukemia
# SK-MEL-5 melanoma = system: SK-MEL-5 melanoma
# PC-3 prostate = system: PC-3 prostate
# SF-539 CNS = system: SF-539 CNS
smiles,measurement,setting,value
CN(c1ncccc1CNc1nc(Nc2ccc3c(c2)CC(=O)N3)ncc1C(F)(F)F)S(C)(=O)=O,GI50,NCI-H522 lung,1810 nM and 2240 nM
same,TGI,NCI-H522 lung,5410 nM and 7710 nM
same,GI50,HOP-62 NSCLC,2580 nM and 2590 nM
same,TGI,HOP-62 NSCLC,> 30100 nM
same,GI50,NCI-H23 lung,1790 nM and 2160 nM
same,TGI,NCI-H23 lung,4880 nM and 6350 nM
same,GI50,MALME-3M melanoma,2980 nM and 2890 nM
same,TGI,MALME-3M melanoma,10200 nM and > 10000 nM
same,GI50,ACHN renal,2720 nM and 3310 nM
same,TGI,ACHN renal,> 100000 nM
same,GI50,RPMI-8226 leukemia,2750 nM and 2390 nM
same,TGI,RPMI-8226 leukemia,10200 nM and 6940 nM
same,GI50,HL-60(TB) leukemia,2020 nM and 1380 nM
same,TGI,HL-60(TB) leukemia,5720 nM and 5510 nM
same,GI50,UACC-257 melanoma,1600 nM and 2240 nM
same,TGI,UACC-257 melanoma,5540 nM and 8760 nM
same,GI50,HCT-15 colon,5140 nM and 4900 nM
same,TGI,HCT-15 colon,> 80500 nM
same,GI50,MCF7 breast,948 nM and 1100 nM
same,TGI,MCF7 breast,> 27000 nM
same,GI50,MDA-MB-435,1460 nM and 2740 nM
same,TGI,MDA-MB-435,11400 nM and > 10000 nM
same,GI50,SN12C renal,2880 nM and 2950 nM
same,TGI,SN12C renal,> 100000 nM
same,GI50,LOX IMVI melanoma,1310 nM and 1680 nM
same,TGI,LOX IMVI melanoma,17400 nM and 9400 nM
same,GI50,U251 CNS,2170 nM and 2760 nM
same,TGI,U251 CNS,> 47300 nM
same,GI50,IGROV1 ovarian,2420 nM and 1800 nM
same,TGI,IGROV1 ovarian,> 100000 nM
same,GI50,786-0 renal,3020 nM and 2510 nM
same,TGI,786-0 renal,> 83800 nM
same,GI50,MOLT-4 leukemia,2900 nM and 2670 nM
same,TGI,MOLT-4 leukemia,7470 nM and 7550 nM
same,GI50,DU-145 prostate,2880 nM and 2740 nM
same,TGI,DU-145 prostate,> 100000 nM
same,GI50,OVCAR-5 ovarian,2220 nM and 2700 nM
same,TGI,OVCAR-5 ovarian,60300 nM and > 10000 nM
same,GI50,SNB-75 CNS,1330 nM and 1510 nM
same,TGI,SNB-75 CNS,4780 nM and 4800 nM
same,GI50,RXF 393 renal,1610 nM and 1480 nM
same,TGI,RXF 393 renal,3980 nM and 4080 nM
same,GI50,SNB-19 CNS,2750 nM and 2890 nM
same,TGI,SNB-19 CNS,> 100000 nM
same,GI50,SF-295 CNS,2200 nM and 2550 nM
same,TGI,SF-295 CNS,> 100000 nM
same,GI50,UACC-62 melanoma,1400 nM
same,TGI,UACC-62 melanoma,3620 nM
same,GI50,A498 renal,2810 nM
same,TGI,A498 renal,7140 nM
same,GI50,OVCAR-3 ovarian,2420 nM and 2810 nM
same,TGI,OVCAR-3 ovarian,> 26900 nM
same,GI50,SK-MEL-28 melanoma,2070 nM and 2920 nM
same,TGI,SK-MEL-28 melanoma,6580 nM and > 10000 nM
same,GI50,SF-268 CNS,2330 nM and 2650 nM
same,TGI,SF-268 CNS,13000 nM and > 10000 nM
same,GI50,HT29 colon,1750 nM and 2330 nM
same,TGI,HT29 colon,4790 nM and 8540 nM
same,GI50,NCI-H460 lung,2140 nM and 2950 nM
same,TGI,NCI-H460 lung,7320 nM and > 10000 nM
same,GI50,T-47D breast,3220 nM and 2720 nM
same,TGI,T-47D breast,> 33000 nM and 9350 nM
same,GI50,BT-549 breast,2210 nM and 2530 nM
same,TGI,BT-549 breast,7000 nM and 9250 nM
same,GI50,HCC-2998 colon,1410 nM and 1800 nM
same,TGI,HCC-2998 colon,7280 nM and 9710 nM
same,GI50,OVCAR-8 ovarian,2410 nM and 3380 nM
same,TGI,OVCAR-8 ovarian,> 64600 nM
same,GI50,SK-OV-3 ovarian,5040 nM and 4610 nM
same,TGI,SK-OV-3 ovarian,> 100000 nM
same,GI50,NCI-H226 lung,2380 nM and 2250 nM
same,TGI,NCI-H226 lung,7970 nM and > 10000 nM
same,GI50,KM12 colon,367 nM and 425 nM
same,TGI,KM12 colon,4520 nM and 7350 nM
same,GI50,OVCAR-4 ovarian,2100 nM and 3560 nM
same,TGI,OVCAR-4 ovarian,11000 nM and > 10000 nM
same,GI50,K-562 leukemia,2970 nM and 3450 nM
same,TGI,K-562 leukemia,> 100000 nM
same,GI50,HCT-116 colon,1520 nM and 2500 nM
same,TGI,HCT-116 colon,12600 nM and > 10000 nM
same,GI50,EKVX NSCLC,1840 nM and 2640 nM
same,TGI,EKVX NSCLC,8230 nM and > 10000 nM
same,GI50,SR leukemia,606 nM and 1540 nM
same,TGI,SR leukemia,4910 nM and 5260 nM
same,GI50,HS 578T breast,1730 nM and 2470 nM
same,TGI,HS 578T breast,7900 nM and > 10000 nM
same,GI50,M14 melanoma,1870 nM and 2910 nM
same,TGI,M14 melanoma,5490 nM and > 10000 nM
same,GI50,COLO 205 colon,601 nM and 1110 nM
same,TGI,COLO 205 colon,2080 nM and 3030 nM
same,GI50,TK-10 renal,1870 nM and 1750 nM
same,TGI,TK-10 renal,7820 nM and > 10000 nM
same,GI50,HOP-92 NSCLC,98.7 nM and 192 nM
same,TGI,HOP-92 NSCLC,1850 nM and 5990 nM
same,GI50,CAKI-1 renal,2150 nM and 2870 nM
same,TGI,CAKI-1 renal,> 52400 nM
same,GI50,SW-620 colon,1560 nM and 2890 nM
same,TGI,SW-620 colon,> 32700 nM
same,GI50,NCI/ADR-RES ovarian,13000 nM
same,TGI,NCI/ADR-RES ovarian,> 85800 nM
same,GI50,MDA-MB-231 breast,2010 nM and 2330 nM
same,TGI,MDA-MB-231 breast,> 100000 nM
same,GI50,A549 NSCLC,2560 nM and 2920 nM
same,TGI,A549 NSCLC,12200 nM and > 10000 nM
same,GI50,UO-31 renal,2880 nM and 2820 nM
same,TGI,UO-31 renal,> 28700 nM
same,GI50,SK-MEL-2 melanoma,1570 nM and 1850 nM
same,TGI,SK-MEL-2 melanoma,3690 nM and 4800 nM
same,GI50,CCRF-CEM leukemia,3000 nM and 2460 nM
same,GI50,SK-MEL-5 melanoma,2570 nM and 2280 nM
same,TGI,SK-MEL-5 melanoma,7440 nM and 5850 nM
same,GI50,PC-3 prostate,2830 nM and 3000 nM
same,TGI,PC-3 prostate,> 35900 nM
same,GI50,SF-539 CNS,1960 nM and 2350 nM
same,TGI,SF-539 CNS,5180 nM and 6930 nM
